# Experimental data taken from patent US11628179B2, “Compounds for treating and preventing extracellular histone mediated pathologies” (priority 2017, dated 2023).
# Where “and” joins values, the source holds several entries; their conditions need not be identical. Equal entries are not always repeated. Structures can show the parent of a compound that is named as a salt.
# Columns and labels:
# [1] = tested on: Sprague Dawley rats
# Method: This study examined toxicity from repeat IV administration of mCBS in rats over 7 days with doses up to 1000 mg/kg.
# The acute tolerability and toxicity of β-O-methyl cellobioside sulfate was assessed in Sprague Dawley rats following daily intravenous dose administration for a period of seven days. A total of four groups of n=3 adult female rats were treated with 0, 100, 300 and 1000 mg/kg doses of mCBS in the form of the sodium salt (mCBS.Na) in this repeated dose study. […] The rats were then observed for 7 days prior to termination with gross necropsy and terminal haematology and biochemistry analyses. An additional group of n=3 male rats were also treated at the highest dose of 1000 mg/kg according to the same study design.
# [2] = Pharmacokinetics, intravenous bolus 20 mg/kg; type: in vivo, rat
# Method: A total of ten blood samples were collected from three rats at time points ranging from pre-dose to 48 hours post-dose. The resulting blood samples were processed to plasma and subsequently analysed for the concentration of mCBS (free-base) using an LC-MS/MS based method. The plasma concentration versus time data were used for calculation of pharmacokinetic parameters.
# [3] = Pharmacokinetics, intravenous bolus 100 mg/kg (plasma and urine); type: in vivo, rat
# Method: A total of nine blood samples were collected from each rat at time points ranging from pre-dose to 192 hours post-dose. Urine samples were also collected over the first 48 hours. The resulting blood samples were processed to plasma. The urine and plasma samples were subsequently analysed for the concentration of mCBS (free-base) using LC-MS/MS based methods.
# [4] = Non-specific binding to ultrafiltration device (phosphate buffer); type: in vitro ADME; settings: for Concentration of mCBS, 200 ng/mL Post-filter / Concentration of mCBS, 200 ng/mL Pre-filter / Concentration of mCBS, 2000 ng/mL Post-filter / Concentration of mCBS, 2000 ng/mL Pre-filter: Phosphate Buffer pH 7.4, replicates and Mean
# Method: Protein binding was assessed by an ultrafiltration method using Centrifree® Ultrafiltration Devices with a 30000 dalton molecular weight cut-off point. Briefly, known concentrations of mCBS (as free base) were added to human, rat and dog plasma samples and incubated for 20 min at 37° C. The samples were then subject to ultrafiltration to separate protein bound and unbound drug.
# mCBS stock solutions (10 μL) were spiked into solutions of each test matrix (490 μL) as listed below in Table 9 to have a final concentration of 200 ng/mL & 2000 ng/m L.
# Spiked samples were then incubated at 37° C. for 20 minutes in a water bath. Aliquots of the samples from each test group (500 μL) were transferred to the ultrafiltration devices (n=3) and centrifuged for 20 minutes at 1000 g. After centrifugation, aliquots of the ultrafiltrates (50 μL) were transferred to separate test tubes for extraction, alongside duplicate aliquots of the samples prior to ultrafiltration from each test group.
# For quantification of samples before ultrafiltration, samples were analysed against a freshly prepared standard curve in plasma.
# [5] = tested on: human RBCs; assay: Histone-induced RBC aggregation (flow cytometry autofluorescence, SEM); type: cell-based
# [6] = tested on: whole blood coagulation; assay: Inhibition of histone-induced perturbation of whole blood coagulation (ROTEM); type: biochemical, human; settings: mCBS 200 μg/mL
# Description: In comparison, the same volume of water had no effect (FIG. 19).
# [7] = tested on: Wistar rats; assay: Rat caecal ligation and puncture (CLP), moderate sepsis; type: in vivo
# Method: Male Wistar rats (n=8/group) underwent laparotomy, caecal ligation and puncture (CLP) to stimulate faecal peritonitis and subsequent sepsis, then treated with saline (Control CLP) or 50 mg/kg of mCBS at 0, 5 and 10 hr post-op via i.p. injection and monitored for 20 hr. Once rats reached a state of severe morbidity they were humanely euthanased at which point a death was recorded.
# Rat caecal ligation and puncture (CLP) assay for sepsis. The CLP assay was performed in male Wistar rats as previously described (see Hubbard, W. J. et al. Cecal ligation and puncture. Shock 24 Suppl 1, 52-57 (2005).). Test compounds (50 mg kg^−1) dissolved in saline or an equivalent volume of saline only (Control cohort) were administered i.p. 5 min pre-CLP and 5, 10 and 15 h post-op until cessation of the experiment at 20 h. Sham-CLP rats underwent the same procedure, however, the caecum was not ligated or punctured and these rats received saline at the same times as above. At the conclusion of the experimental time period (20 h) or when morbidity required ethical euthanasia, the rats were anaesthetised and blood was collected via cardiac puncture into EDTA for subsequent analysis of liver (ALT) and kidney (creatinine) function by the Department of Pathology, The Canberra Hospital. The propensity for clots to form within the blood samples of the saline treated control CLP animals (despite the presence of EDTA) prevented successful analysis of plasma samples from all animals.
# [8] = IV bolus 20 mg/kg as sodium salt
# [9] = IV bolus 100 mg/kg as sodium salt
structure (smiles),measurement,setting,value
"CO[C@@H]1O[C@H](COS(=O)(=O)O)[C@@H](O[C@@H]2O[C@H](COS(=O)(=O)O)[C@@H](OS(=O)(=O)O)[C@H](OS(=O)(=O)O)[C@H]2OS(=O)(=O)O)[C@H](OS(=O)(=O)O)[C@H]1OS(=O)(=O)O [mCBS, β-O-methyl cellobioside sulfate]",tolerability,"[1]; daily IV bolus 100, 300 and 1000 mg/kg for 7 days",well tolerated at all dose levels
same,"MTD, as free base","[1]; daily IV bolus for 7 days, corrected for purity and sodium content",815 mg/kg
same,MTD,"[1]; daily IV bolus for 7 days, dose as sodium salt form",1000 mg/kg
same,Hematology and biochemistry parameters,[1]; daily IV bolus up to 1000 mg/kg for 7 days,unremarkable
same,"AUCinf, mean (±SEM)",[2]; [8],35000 (±2940) ng·h/mL
same,"AUClast, mean (±SEM)",[2]; [8],34300 (±2460) ng·h/mL
same,"apparent elimination half-life (T½), mean (±SEM)",[2]; [8],77.5 (±54.5) h
same,"mean residence time (MRT), mean (±SEM)",[2]; [8],5.58 (±3.99) h
same,"total body clearance (Cl), mean (±SEM)",[2]; [8],0.472 (±0.0377) L/h/kg
same,"volume of distribution (Vz), mean (±SEM)",[2]; [8],46.9 (±30.7) L/kg
same,"concentration at time zero (C0), mean (±SEM)","[2]; IV bolus 20 mg/kg as sodium salt (16.3 mg/kg free base), plasma, n=3",73400 (±8560) ng/mL
same,administered dose removed from the central compartment,"[2]; IV bolus 20 mg/kg, first 4 hours",over 90%
same,"percent of total dose excreted in urine, mean (±SEM)",[3]; 0-4 h post-dosing,52.0 (±5.0) %
same,"percent of total dose excreted in urine, mean (±SEM)",[3]; 0-24 h post-dosing,65.0 (±7.0) %
same,"percent of total dose excreted in urine, mean (±SEM)",[3]; 0-48 h post-dosing,69.2 (±10.8) %
same,AUCinf,[3]; [9],"135,000 ng·h/mL"
same,AUClast,[3]; [9],"135,000 ng·h/mL"
same,distribution half-life,[3]; [9],0.65 h
same,mean residence time (MRT),[3]; [9],1.43 h
same,terminal total body clearance (Cl),[3]; [9],10.1 mL/min/kg
same,volume of distribution (Vz),[3]; [9],49.0 L/kg
same,concentration at time zero (C0),"[3]; IV bolus 100 mg/kg as sodium salt (81.5 mg/kg free base), pooled mean plasma data, 6 rats","308,000 ng/mL"
same,apparent terminal elimination half-life (T½),"[3]; IV bolus 100 mg/kg as sodium salt, 100 mg/kg",56.1 h and ~56 h
same,Non-specific binding (NSB %),[4]; 200 ng/mL,0.50%
same,Non-specific binding (NSB %),[4]; 2000 ng/mL,−1.97%
same,"Concentration of mCBS, 200 ng/mL Post-filter",[4],194 ng/mL and 202 ng/mL
same,"Concentration of mCBS, 200 ng/mL Pre-filter",[4],209 ng/mL and 195 ng/mL
same,"Concentration of mCBS, 2000 ng/mL Post-filter",[4],2190 ng/mL and 2160 ng/mL
same,"Concentration of mCBS, 2000 ng/mL Pre-filter",[4],1970 ng/mL
same,"Concentration of mCBS, 200 ng/mL Post-filter",[4]; mean,201 ng/mL
same,"Concentration of mCBS, 200 ng/mL Pre-filter",[4]; mean,202 ng/mL
same,"Concentration of mCBS, 2000 ng/mL Post-filter",[4]; mean,2070 ng/mL
same,"Concentration of mCBS, 2000 ng/mL Pre-filter",[4]; mean,2030 ng/mL
same,inhibition of histone-induced RBC aggregation,[5]; 0-200 μg/mL added prior to 400 μg/mL histones,inhibit histone-induced RBC aggregation in a dose dependent manner
same,reversal of histone-induced RBC aggregation,"[5]; histones 400 μg/mL 55 min, then mCBS 5 min",near complete inhibition
same,prevention of histone-induced RBC aggregation,"[5]; mCBS 200 μg/mL, histones 400 μg/mL 60 min",prevented
same,inhibition of histone-induced prolongation of clotting time,[6],able to inhibit the anticoagulant effects of both 400 and 800 μg/mL of histones
same,survival rate,"[7]; 50 mg/kg i.p. at 0, 5 and 10 hr post-op, monitored 20 hr",100%
same,circulating LDH levels,"[7]; 50 mg/kg i.p., Control CLP 1.1±0.2, p=0.03",0.6±0.1 U/L×10^3
same,ALT or creatinine levels between the groups,[7]; mCBS vs Control CLP,No differences
